Key:
Ehrlich = test: Antitumor activity against mouse Ehrlich ascites carcinoma allografted in Swiss albino mouse assessed tumor growth inhibition by measuring CD8+ T cells relative to control; format: functional
[1] = biological target: T1, Indoleamine 2,3-dioxygenase 1 (Homo sapiens, UniProt P14902); test: Inhibition of IDO1 (unknown origin)
[2] = Oral bioavailability in ICR mouse 30 mg/kg measured after 0.0833 to 24 hrs by liquid chromatography/tandem mass spectrometric analysis; format: ADME, organism-based; conditions: in vivo, time 0.0833-24 hrs
[3] = biological target: T2, Protein cereblon/Indoleamine 2,3-dioxygenase 1 (Homo sapiens, UniProt P14902+Q96SW2); test: Protac activity at CRBN/IDO1 in human HeLa cells assessed as IDO1 protein degradation relative to control; format: cell-based
Target sequence in this assay (P14902 whole entry, looked up): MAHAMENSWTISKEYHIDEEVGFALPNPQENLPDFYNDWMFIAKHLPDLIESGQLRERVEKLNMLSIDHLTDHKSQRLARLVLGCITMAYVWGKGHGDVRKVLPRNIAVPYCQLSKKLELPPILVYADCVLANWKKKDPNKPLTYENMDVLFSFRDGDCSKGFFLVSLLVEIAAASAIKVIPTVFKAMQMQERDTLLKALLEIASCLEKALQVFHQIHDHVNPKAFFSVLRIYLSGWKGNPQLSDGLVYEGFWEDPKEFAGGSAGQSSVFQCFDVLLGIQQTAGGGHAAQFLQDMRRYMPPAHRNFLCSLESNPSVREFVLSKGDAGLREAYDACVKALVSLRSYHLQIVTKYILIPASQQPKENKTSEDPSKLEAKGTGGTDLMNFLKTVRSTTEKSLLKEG
Target sequence in this assay (Q96SW2 whole entry, looked up): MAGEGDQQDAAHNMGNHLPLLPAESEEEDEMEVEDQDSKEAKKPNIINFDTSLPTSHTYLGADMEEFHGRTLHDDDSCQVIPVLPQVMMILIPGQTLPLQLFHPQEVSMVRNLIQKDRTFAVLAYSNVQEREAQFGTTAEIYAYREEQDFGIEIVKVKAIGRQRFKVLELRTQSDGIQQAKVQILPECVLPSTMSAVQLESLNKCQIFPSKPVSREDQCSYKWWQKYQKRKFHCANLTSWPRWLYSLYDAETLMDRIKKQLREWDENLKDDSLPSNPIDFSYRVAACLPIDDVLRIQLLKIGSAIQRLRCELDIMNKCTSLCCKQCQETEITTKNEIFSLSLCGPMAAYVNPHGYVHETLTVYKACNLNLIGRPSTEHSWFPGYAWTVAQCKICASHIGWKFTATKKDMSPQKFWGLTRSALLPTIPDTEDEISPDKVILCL

[4] = biological target: T2, Protein cereblon/Indoleamine 2,3-dioxygenase 1; test: Protac activity at CRBN/IDO1 in human HeLa cells assessed as IDO1 protein degradation; format: cell-based
Target sequence in this assay (P14902 whole entry): as the sequence (P14902 whole entry, looked up) above
Target sequence in this assay (Q96SW2 whole entry): as the sequence (Q96SW2 whole entry, looked up) above

HeLa = test: Cytotoxicity against human HeLa cells assessed as cell viability incubated for 48 hrs by MTT assay; format: functional, cell-based
[5] = biological target: T1, Indoleamine 2,3-dioxygenase 1; test: Inhibition of IDO1 (unknown origin) using L-tryptophan incubated for 30 mins by microplate reader method
[6] = biological target: T1, Indoleamine 2,3-dioxygenase 1; test: Inhibition of IDO1 in IFN-gamma stimulated human HeLa cells in presence of heme measured after 20 hrs by heme-competitive binding assay; format: cell-based
Homo sapiens = organism: Homo sapiens; test: Ratio of IC50 for IDO1 (unknown origin) to IC50 for IDO1 in human HeLa cells; format: cell-based

T1 sequence (P14902 whole entry): as the sequence (P14902 whole entry, looked up) above

SMILES	IC50 [1]	other results
NC(=O)c1n[nH]nc1-c1ccc(F)c(F)c1	–	TGI (Ehrlich): 96%
O/N=C(/CCC1CCCCC1)Nc1cccc(Cl)c1	< 1 nM	–
O=S(=O)(NCCCOc1ccccc1-c1c[nH]cn1)C(F)(F)F	–	bioavailability [2]: 96%
O=C1CCC(N2C(=O)c3cccc(NCCOCCOCCOCCOCCOCCOCCOCCNCCNc4nonc4/C(=N/O)Nc4cccc(Br)c4)c3C2=O)C(=O)N1 (configuration not stated)	1070 nM	Emax [3]: 93%; DC50 [4]: 2840 nM; IC50 (HeLa): 37400 nM
Nc1nonc1/C(=N/O)N1Cc2ccccc2C1	1.57 nM	–
CC(C(=O)Nc1ccc(Cl)cc1)C1CCC(c2ccnc(C(F)(F)F)c2)CC1 (configuration not stated)	< 50 nM	–
C[C@@H](NC(=O)c1ccc(Cl)cc1)[C@H]1CC[C@@H](c2ccnc3ccc(F)cc32)CC1	< 50 nM	–
CC1=CCC[C@@H](C)[C@]1(C)C[C@]1(C)[C@@H](O)CC[C@]2(C)[C@@]3(C)CC[C@]4(C)c5c(C(O)C(=O)O)ccc(O)c5C[C@H]4[C@]3(C)CC[C@]21C (some centres not stated)	–	IC50 [5]: 240 nM
C[C@@H](C(=O)Nc1ccc(C#N)cc1)[C@H]1CC[C@@H](c2ccnc3ccc(F)cc32)CC1	–	IC50 [6]: < 100 nM
CC(C(=O)Nc1ccc(Cl)cc1)N1CCC(Oc2ccnc3ccc(F)cc23)CC1 (configuration not stated)	> 50 nM	–
C[C@@H](NS(=O)(=O)c1cccc(Cl)c1)[C@H]1CC[C@@H](c2ccnc3ccc(F)cc32)CC1	< 50 nM	–
OC1CCC(C(F)(F)CC2c3c(F)cccc3-c3cncn32)CC1 (configuration not stated)	< 100 nM	–
Cn1cc(-c2cc(F)c(NC(=O)NCC3c4ccccc4-c4cncn43)cc2F)cn1 (configuration not stated)	16 nM	–
N#Cc1ccc(NC(=O)NCC2c3ccccc3-c3cncn32)cc1 (configuration not stated)	< 50 nM	–
OC(CC1c2cc(F)ncc2-c2cncn21)C1CCCCC1 (configuration not stated)	< 100 nM	–
Clc1ccc(Nc2cn[nH]n2)cc1	–	Ratio IC50 (Homo sapiens): > 500
CC(C(=O)Nc1ccc(Cl)cc1)[C@H]1CC[C@H](Oc2ccnc(C(F)(F)F)c2)CC1 (some centres not stated)	> 250 nM	–
COC1CN(CCNc2nc3c(F)c(F)cc(/C(=N/O)Nc4cccc(Br)c4)c3[nH]2)C1	111 nM	–
O=S(=O)(Nc1cccc2cnccc12)c1ccc2c(c1)OCCO2	> 50 nM	–
Cn1cc(-c2ccc(NC(=O)N3CCC(C(=O)/C(=N/O)Nc4ccc(F)c(Br)c4)CC3)cc2)cn1	4 nM	–
CC(C)Oc1ccc(S(=O)(=O)NC2CCCc3cnccc32)cc1 (configuration not stated)	< 50 nM	–
CCC(C(=O)Nc1ccc(Cl)cc1)[C@H]1CC[C@H](Oc2ccnc3ccccc23)CC1 (some centres not stated)	> 50 nM	–
O=C(Nc1ccc(Cl)cc1)N[C@H]1CC[C@H](c2ccnc3ccc(F)cc32)CC1	< 50 nM	–
O[C@@H](C[C@H]1c2ccccc2-c2cncn21)c1cc2ccoc2cc1F	< 200 nM	–

From ChEMBL document CHEMBL5136980, “Indoleamine 2,3-dioxygenase 1 (IDO1) inhibitors and PROTAC-based degraders for cancer therapy” (Eur J Med Chem, 2022)
